Measured values published in patent US6521645B2, “Methods for the treatment and prevention of urinary stone disease” (The University of Kansas Medical Center, priority 2000, dated 2003).
Like-named read-outs stand apart in the source and are kept apart here.

Tests used:
[1] = rat model of hyperoxaluria; cited from earlier work
[2] = cited from earlier work
[3] = Urinary oxalate excretion in pyridoxamine-treated rats (oxalate oxidase method); type: in vivo, Sprague-Dawley rats; conditions: pyridoxamine in drinking water, 1.2 μm/day/gram body weight
Description: (§1) Two month old Sprague-Dawley rats were housed individually in metabolic cages and fed standard powdered stock rations. […] To minimize possible chemical degradation of pyridoxamine, fresh solutions were prepared daily and administered in water bottles wrapped in aluminum foil.
Twenty-four hour urine samples were collected under toluene (to inhibit bacterial growth) using containers with 2 M hydrochloric acid to minimize spontaneous breakdown of urinary ascorbic acid to oxalate (21). The urine samples were stored at −70° C. until further analysis. Under these conditions, frozen urine can be stored for at least 1 month with no effect on oxalate measurements (22). Collected urine samples were analyzed to determine concentrations of oxalate using the oxalate oxidase method (23). This assay is highly specific and sensitive to about 10 μM (23). Oxalate oxidase from Barley seedlings was purchased from Sigma Co. (St. Louis, Mo.). The method is based on the conversion of oxalate to hydrogen peroxide and carbon dioxide by oxalate oxidase. […] was determined enzymatically with horseradish peroxidase by oxidative coupling of 3-methyl-2-benzothiazolinone hydrazone with N,N-dimethylaniline. The resulting colored product was determined spectrophotometrically at 595 nm. The modified sample preparation procedure was used, which replaces column chromatography with a simple precipitation step (24).

[4] = Body weight, behavior and water consumption of pyridoxamine-treated rats; type: in vivo, Sprague-Dawley rats
Description: as §1

oxalate oxidase = target: T1, oxalate oxidase (Hordeum vulgare, UniProt P45850); experiment: Interference of pyridoxamine with urinary oxalate determination by oxalate oxidase method; design: species or system Barley; conditions: pyridoxamine added to assay mixtures, final concentration 2 mg/ml
T1 construct: Oxalate oxidase from Barley seedlings was purchased from Sigma Co; purchased Sigma Co. (St. Louis, Mo.); host or cells: barley seedlings (natural source)
T1 sequence (P45850 1-201): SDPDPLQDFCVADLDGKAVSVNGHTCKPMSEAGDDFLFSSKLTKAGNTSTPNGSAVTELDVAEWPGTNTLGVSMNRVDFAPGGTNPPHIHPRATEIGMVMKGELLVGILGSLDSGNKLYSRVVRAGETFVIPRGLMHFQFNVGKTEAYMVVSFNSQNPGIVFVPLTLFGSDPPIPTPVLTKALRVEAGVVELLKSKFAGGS
Description: Twenty-four hour urine samples were collected under toluene (to inhibit bacterial growth) using containers with 2 M hydrochloric acid to minimize spontaneous breakdown of urinary ascorbic acid to oxalate (21). The urine samples were stored at −70° C. until further analysis. […] Collected urine samples were analyzed to determine concentrations of oxalate using the oxalate oxidase method (23). This assay is highly specific and sensitive to about 10 μM (23). […] The method is based on the conversion of oxalate to hydrogen peroxide and carbon dioxide by oxalate oxidase. The latter was determined enzymatically with horseradish peroxidase by oxidative coupling of 3-methyl-2-benzothiazolinone hydrazone with N,N-dimethylaniline. The resulting colored product was determined spectrophotometrically at 595 nm. The modified sample preparation procedure was used, which replaces column chromatography with a simple precipitation step (24).

[5] = Ethylene glycol (EG) rat model of experimental hyperoxaluria; type: in vivo; conditions: rats given EG […] solution in drinking water; predicted result
Source text: Both compounds are precursors of oxalate synthesis and their administration results in increased urinary oxalate concentration. […] The use of two different models also helps to minimize possible model-specific adverse effects. […] The results for Day-14 oxalate are known by Day 15, at which time the animals within each group (Control, EG) are pair-matched according to their Day-14 oxalate. The pyridoxamine and no-pyridoxamine groups therefore begin the pyridoxamine-treatment period with nearly identical mean and standard deviation oxalate excretion, which optimizes the sensitivity of this experimental design.

[6] = diabetic rat model, 7 months, same dose; cited from earlier work
[7] = cited from earlier work; remark: listed apart in the source

O=C1N[C@H](C(=O)O)CS1 [OTZ, (L)-2-oxothiazolidine-4-carboxylate]
urinary oxalate concentration [1]: decrease | urinary oxalate levels ([2]; normal individuals): decreased | adverse effects ([2]; patients, administered for only 48 hours): mild to moderate adverse effects

Cc1ncc(CO)c(CN)c1O.Cl.Cl [pyridoxamine, Pyridoxamine dihydrochloride]
statistical significance of the urinary oxalate difference from controls [3]: statistically different from controls after 12 days | urinary oxalate levels versus controls [3]: consistently lower | general behavior versus control group [4]: no difference | weight gain versus control group [4]: no difference | Weight ([4]; Day 1): 315 ± 6 grams | Weight ([4]; Day 26): 363 ± 16 grams | effect on oxalate measurements (oxalate oxidase): no effect | oxalate excretion [5]: significantly reduce | therapeutic effect of the dose [6]: had therapeutic effects

Cc1ncc(CO)c(CO)c1O [pyridoxine]
urinary oxalate levels ([7]; stone formers, 200 mg daily): did not reduce | risk of kidney stone formation ([7]; women, 40 mg/day): reduced risk
